Assay results: patent US20060106085A1, “Methods and compositions using PDE4 modulators for treatment and management of central nervous system injury” (priority 2004, published 2006)

What was measured:
[1] = tested on: TNF-α production from human PBMC; assay: LPS-induced TNF-α production from human PBMC; assay type: cell-based; conditions: LPS 100 ng/ml, compound added 1 hour before LPS, 18-20 hours, ELISA
Description: Inhibition of TNF-α production following LPS-stimulation of human PBMC and human whole blood by 3-(3,4-dimethoxy-phenyl)-3-(1-oxo-1,3-dihydro-isoindol-2-yl)-propionamide is investigated in vitro (Muller et al., Bioorg. Med. Chem. Lett. 9:1625-1630, 1999). The IC50's of 3-(3,4-dimethoxy-phenyl)-3-(1-oxo-1,3-dihydro-isoindol-2-yl)-propionamide for inhibiting production of TNF-α following LPS-stimulation of PBMC and human whole blood is measured.
For example, 3-(3,4-dimethoxy-phenyl)-3-(1-oxo-1,3-dihydro-isoindol-2-yl)-propionamide was tested for the ability to inhibit LPS-induced TNF-α production from human PBMC as previously described (Muller et al. 1996, J. Med. Chem. 39:3238). PBMC from normal donors were obtained by Ficoll Hypaque (Pharmacia, Piscataway, N.J., USA) density centrifugation. Cells were cultured in RPMI (Life Technologies, Grand Island, N.Y., USA) supplemented with 10% AB±human serum (Gemini Bio-products, Woodland, Calif., USA), 2 mM L-glutamine, 100 U/ml penicillin, and 100 μg/ml streptomycin (Life Technologies).
PBMC (2×10^5 cells) were plated in 96-well flat-bottom Costar tissue culture plates (Corning, N.Y., USA) in triplicate. Cells were stimulated with LPS (Sigma, St. Louis, Mo., USA) at 100 ng/ml in the absence or presence of compounds. […]

[2] = tested on: TNF-α production from human PBMC; assay: IL-1β-induced TNF-α production from human PBMC; assay type: cell-based; conditions: 50 ng/ml recombinant human IL-1β, 18 hours
Description: During the course of inflammatory diseases, TNF-α production is often stimulated by the cytokine 1L-1β rather than by bacterially derived LPS. 3-(3,4-Dimethoxy-phenyl)-3-(1-oxo-1,3-dihydro-isoindol-2-yl)-propionamide was tested for the ability to inhibit IL-1β-induced TNF-α production from human PBMC as described above for LPS-induced TNF-α production, except that the PBMC are isolated from source leukocyte units (Sera-Tec Biologicals, North Brunswick, N.J., USA) by centrifugation on Ficoll-Paque Plus (Amersham Pharmacia, Piscataway, N.J., USA), plated in 96-well tissue culture plates at 3×10^5 cells/well in RPMI-1640 medium (BioWhittaker, Walkersville, Md., USA) containing 10% heat-inactivated fetal bovine serum (Hyclone), 2 mM L-glutamine, 100 U/ml penicillin, and […] (complete medium), pretreated with compounds at 10, 2, 0.4, 0.08, 0.016, 0.0032, 0.00064, and 0 μM in duplicate at a final DMSO concentration of 0.1% at 37° C. in a humidified incubator at 5% CO2 for 1 hour, then stimulated with 50 ng/ml recombinant human IL-1β (Endogen) for 18 hours.

PDE4 = assay: Inhibition of PDE4 enzyme purified from U937 human monocytic cells; assay type: biochemical; conditions: 1 μM cAMP, 30 min at 30° C.
Description: PDE4 enzyme was purified from U937 human monocytic cells by gel filtration chromatography as previously described (Muller et al. 1998, Bioorg. & Med Chem Lett 8:2669-2674). Phosphodiesterase reactions were carried out in 50 mM Tris HCl pH 7.5, 5 mM MgCl2, 1 μM cAMP, 10 nM [^311)-cAMP for 30 min at 30° C., terminated by boiling, treated with 1 mg/ml snake venom, and separated using AG-1×S ion exchange resin (BioRad) as described (Muller et al. 1998, Bioorg. & Med Chem Lett 8:2669-2674). Reactions consumed less than 15% of available substrate.

[3] = Cardiovascular and respiratory function in anesthetized dogs; assay type: in vivo; conditions: anesthetized Beagle dogs, 400, 800, and 1,200 mg/kg/day ascending doses, infusion through the jugular vein, compared to vehicle control
Description: The effects of 3-(3,4-dimethoxy-phenyl)-3-(1-oxo-1,3-dihydro-isoindol-2-yl)-propionamide on cardiovascular and respiratory function are investigated in anesthetized dogs. Two groups of Beagle dogs (2/sex/group) are used. One group receives three doses of vehicle only and the other receives three ascending doses of 3-(3,4-dimethoxy-phenyl)-3-(1-oxo-1,3-dihydro-isoindol-2-yl)-propionamide (400, 800, and 1,200 mg/kg/day). In all cases, doses of 3-(3,4-dimethoxy-phenyl)-3-(1-oxo-1,3-dihydro-isoindol-2-yl)-propionamide or vehicle are successively administered via infusion through the jugular vein separated by intervals of at least 30 minutes.

spinal cord contusion = conditions: cited from earlier work

IC50 (PDE4)	Structure (SMILES)	IC50 [1]	IC50 [2]	cardiovascular and respiratory changes [3]	locomotion (spinal cord contusion; combination of rolipram with db-cAMP)	axon sparing and myelination (spinal cord contusion; combined with Schwann cell grafts)	cAMP levels after spinal cord contusion (spinal cord contusion; rolipram alone)
15 µM	COc1ccc(C(CC(N)=O)N2Cc3ccccc3C2=O)cc1OC (stereo not shown) [3-(3,4-dimethoxy-phenyl)-3-(1-oxo-1,3-dihydro-isoindol-2-yl)-propionamide]	21 µM	16 µM	minimal at all doses	–	–	–
–	COc1ccc(C2CNC(=O)C2)cc1OC1CCCC1 (stereo not shown) [rolipram]	–	–	–	improved locomotion	promoted significant supraspinal and proprioceptive axon sparing and myelination	prevented the decrease of cAMP levels
